How the values were obtained:
Format in all cases: in vivo
[1] = test system: velvetleaf (Abutilon theophrasti); assay: Test A pre-/postemergence plant response
Summary of the method: (§1)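 Greenhouse trial, ~10 days. Soil (loam/sand) sprayed preemergence after seeding; emerged plants (1–2 leaf, 2–10 cm) sprayed postemergence in parallel. Response = visual injury vs untreated control, 0–100.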

[2] = test system: large crabgrass (Digitaria sanguinalis); assay: Test A pre-/postemergence plant response
Summary of the method: as §1

[3] = test system: giant foxtail (Setaria faberii); assay: Test A pre-/postemergence plant response
Summary of the method: as §1

[4] = test system: wheat (Triticum aestivum); assay: Test A pre-/postemergence plant response
Summary of the method: as §1

[5] = test system: barnyardgrass (Echinochloa crus-galli); assay: Test A pre-/postemergence plant response
Summary of the method: as §1

corn (Zea mays) = assay: Test A pre-/postemergence plant response
Summary of the method: as §1

[6] = test system: pigweed (Amaranthus retroflexus); assay: Test A pre-/postemergence plant response
Summary of the method: as §1

[7] = test system: morningglory (Ipomoea spp.); assay: Test A pre-/postemergence plant response
Summary of the method: as §1

[8] = test system: umbrella sedge (Cyperus difformis); assay: Test B flooded paddy test; conditions: for Plant response rating, Flood, Sedge, Umbrella: 250 g ai/ha, flooded paddy test, visual rating on 0 to 100 scale (0 no effect, 100 complete control) after 13 to 15 days; for Plant response rating, Sedge, Umbrella: Flood (flooded paddy test), 13 to 15 days; for Sedge, Umbrella plant response rating: Flood, 31 g ai/ha, scale 0 to 100 (0 no effect, 100 complete control)
Summary of the method: (§2)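 Visual scores run from 0 (no effect) to 100 (complete control), assigned by comparison with controls 13 to 15 days after treatment. Test compounds went straight into water standing 3 cm above the soil, around plants at the 2-leaf stage kept in a greenhouse.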

rice (Oryza sativa) = assay: Test B flooded paddy test; conditions: for Plant response rating, Flood, Rice: 250 g ai/ha, flooded paddy test, visual rating on 0 to 100 scale (0 no effect, 100 complete control) after 13 to 15 days; for Plant response rating, Rice: Flood (flooded paddy test), 13 to 15 days; for Rice plant response rating: Flood, 31 g ai/ha, scale 0 to 100 (0 no effect, 100 complete control)
Summary of the method: as §2

[9] = test system: ducksalad (Heteranthera limosa); assay: Test B flooded paddy test; conditions: for Plant response rating, Flood, Ducksalad: 250 g ai/ha, flooded paddy test, visual rating on 0 to 100 scale (0 no effect, 100 complete control) after 13 to 15 days; for Plant response rating, Ducksalad: Flood (flooded paddy test), 13 to 15 days; for Ducksalad plant response rating: Flood, 31 g ai/ha, scale 0 to 100 (0 no effect, 100 complete control)
Summary of the method: as §2

[10] = test system: barnyardgrass (Echinochloa crus-galli); assay: Test B flooded paddy test; conditions: for Plant response rating, Flood, Barnyardgrass: 250 g ai/ha, flooded paddy test, visual rating on 0 to 100 scale (0 no effect, 100 complete control) after 13 to 15 days; for Plant response rating, Barnyardgrass: Flood (flooded paddy test), 13 to 15 days; for Barnyardgrass plant response rating: Flood, 31 g ai/ha, scale 0 to 100 (0 no effect, 100 complete control)
Summary of the method: as §2

[11] = test system: windgrass (Apera spica-venti); assay: Test B postemergence plant response; conditions: for Windgrass plant response rating (0 to 100 scale): 62 g ai/ha, postemergence, 0 is no effect, 100 is complete control; for Plant response rating, Windgrass: Postemergence
Summary of the method: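 Visual ratings from 0 (no effect) to 100 (complete control), made against controls 13–15 days after treatment, kept in a greenhouse. Compounds were applied postemergence to potted plants at the 1- to 4-leaf stage (2–18 cm).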

[12] = Postemergence, 125 g ai/ha, 0 to 100 scale where 0 is no effect and 100 is complete control
[13] = Postemergence, 500 g ai/ha, 0 to 100 scale, 0 = no effect, 100 = complete control, approx. ten days
[14] = Preemergence, 125 g ai/ha, 0 to 100 scale, 0 = no effect, 100 = complete control
[15] = Preemergence, 500 g ai/ha, visual injury, 0 to 100 scale (0 no effect, 100 complete control), approx. ten days
[16] = 62 g ai/ha, scale of 0 to 100 where 0 is no effect and 100 is complete control
[17] = 125 g ai/ha, scale 0 to 100, 0 is no effect, 100 is complete control
[18] = 31 g ai/ha, 0 to 100 scale (0 no effect, 100 complete control)
[19] = 125 g ai/ha, scale 0 to 100 (0 no effect, 100 complete control)

COCCCn1c(-c2cccc(F)c2)ncc(C(=O)C2=C(O)CCCC2=O)c1=O [Compound 126]
Plant response rating, Velvetleaf [1, 12]: 100 | Plant response rating, Velvetleaf [1, 13]: 100 | Plant response rating, Velvetleaf [1, 14]: 80 | Plant response rating, Velvetleaf [1, 15]: 100 | Plant response rating, Crabgrass, Large [2, 12]: 90 | Plant response rating, Crabgrass, Large [2, 13]: 90 | Plant response rating, Crabgrass, Large [2, 14]: 90 | Plant response rating, Crabgrass, Large [2, 15]: 100 | Plant response rating, Foxtail, Giant [3, 12]: 70 | Plant response rating, Foxtail, Giant [3, 13]: 80 | Plant response rating, Foxtail, Giant [3, 14]: 60 | Plant response rating, Foxtail, Giant [3, 15]: 90 | Plant response rating, Wheat [4, 12]: 0 | Plant response rating, Wheat [4, 13]: 20 | Plant response rating, Wheat [4, 14]: 0 | Plant response rating, Wheat [4, 15]: 20 | Plant response rating, Barnyardgrass [5, 12]: 80 | Plant response rating, Barnyardgrass [5, 13]: 90 | Plant response rating, Barnyardgrass [5, 14]: 70 | Plant response rating, Barnyardgrass [5, 15]: 100 | Plant response rating, Corn (corn (Zea mays); [12]): 10 | Plant response rating, Corn (corn (Zea mays); [13]): 60 | Plant response rating, Corn (corn (Zea mays); [14]): 0 | Plant response rating, Corn (corn (Zea mays); [15]): 20 | Plant response rating, Pigweed [6, 12]: 90 | Plant response rating, Pigweed [6, 13]: 100 | Plant response rating, Pigweed [6, 14]: 100 | Plant response rating, Pigweed [6, 15]: 100 | Plant response rating, Morningglory [7, 12]: 100 | Plant response rating, Morningglory [7, 13]: 100 | Plant response rating, Morningglory [7, 14]: 70 | Plant response rating, Morningglory [7, 15]: 90 | Plant response rating, Flood, Sedge, Umbrella [8]: 85 | Plant response rating, Sedge, Umbrella [8, 16]: 70 | Plant response rating, Sedge, Umbrella [8, 17]: 80 | Sedge, Umbrella plant response rating [8]: 50 | Plant response rating, Flood, Rice (rice (Oryza sativa)): 15 | Plant response rating, Rice (rice (Oryza sativa); [16]): 0 | Plant response rating, Rice (rice (Oryza sativa); [17]): 0 | Rice plant response rating (rice (Oryza sativa)): 0 | Plant response rating, Flood, Ducksalad [9]: 85 | Plant response rating, Ducksalad [9, 16]: 80 | Plant response rating, Ducksalad [9, 17]: 85 | Ducksalad plant response rating [9]: 75 | Plant response rating, Flood, Barnyardgrass [10]: 75 | Plant response rating, Barnyardgrass [10, 16]: 45 | Plant response rating, Barnyardgrass [10, 17]: 60 | Barnyardgrass plant response rating [10]: 20 | Windgrass plant response rating (0 to 100 scale) ([11]; 13 to 15 days): 10 | Plant response rating, Windgrass [11, 18]: 10 | Plant response rating, Windgrass [11, 19]: 40

CCCn1c(-c2cccc(F)c2)ncc(C(=O)C2=C(O)CCCC2=O)c1=O [Compound 127]
Plant response rating, Velvetleaf [1, 12]: 100 | Plant response rating, Velvetleaf [1, 13]: 100 | Plant response rating, Velvetleaf [1, 14]: 70 | Plant response rating, Velvetleaf [1, 15]: 100 | Plant response rating, Crabgrass, Large [2, 12]: 80 | Plant response rating, Crabgrass, Large [2, 13]: 90 | Plant response rating, Crabgrass, Large [2, 14]: 90 | Plant response rating, Crabgrass, Large [2, 15]: 100 | Plant response rating, Foxtail, Giant [3, 12]: 70 | Plant response rating, Foxtail, Giant [3, 13]: 80 | Plant response rating, Foxtail, Giant [3, 14]: 50 | Plant response rating, Foxtail, Giant [3, 15]: 90 | Plant response rating, Wheat [4, 12]: 0 | Plant response rating, Wheat [4, 13]: 0 | Plant response rating, Wheat [4, 14]: 0 | Plant response rating, Wheat [4, 15]: 0 | Plant response rating, Barnyardgrass [5, 12]: 80 | Plant response rating, Barnyardgrass [5, 13]: 90 | Plant response rating, Barnyardgrass [5, 14]: 40 | Plant response rating, Barnyardgrass [5, 15]: 100 | Plant response rating, Corn (corn (Zea mays); [12]): 20 | Plant response rating, Corn (corn (Zea mays); [13]): 20 | Plant response rating, Corn (corn (Zea mays); [14]): 0 | Plant response rating, Corn (corn (Zea mays); [15]): 0 | Plant response rating, Pigweed [6, 12]: 90 | Plant response rating, Pigweed [6, 13]: 100 | Plant response rating, Pigweed [6, 14]: 100 | Plant response rating, Pigweed [6, 15]: 100 | Plant response rating, Morningglory [7, 12]: 90 | Plant response rating, Morningglory [7, 13]: 100 | Plant response rating, Morningglory [7, 14]: 10 | Plant response rating, Morningglory [7, 15]: 80 | Plant response rating, Flood, Sedge, Umbrella [8]: 80 | Plant response rating, Sedge, Umbrella [8, 16]: 20 | Plant response rating, Sedge, Umbrella [8, 17]: 60 | Sedge, Umbrella plant response rating [8]: 0 | Plant response rating, Flood, Rice (rice (Oryza sativa)): 35 | Plant response rating, Rice (rice (Oryza sativa); [16]): 15 | Plant response rating, Rice (rice (Oryza sativa); [17]): 25 | Rice plant response rating (rice (Oryza sativa)): 0 | Plant response rating, Flood, Ducksalad [9]: 80 | Plant response rating, Ducksalad [9, 16]: 30 | Plant response rating, Ducksalad [9, 17]: 60 | Ducksalad plant response rating [9]: 0 | Plant response rating, Flood, Barnyardgrass [10]: 75 | Plant response rating, Barnyardgrass [10, 16]: 40 | Plant response rating, Barnyardgrass [10, 17]: 65 | Barnyardgrass plant response rating [10]: 0 | Windgrass plant response rating (0 to 100 scale) ([11]; 13 to 15 days): 50 | Plant response rating, Windgrass [11, 18]: 25 | Plant response rating, Windgrass [11, 19]: 55 | Plant response rating, Windgrass ([11]; 250 g ai/ha, scale 0 to 100 (0 no effect, 100 complete control), 13 to 15 days): 70
